Some test systems named below: CAKI-1 renal; HCT-116 colon; HCT-15 colon; NCI-H23 lung; SK-MEL-2 melanoma; SNB-75 CNS; SW-620 colon; T-47D breast; TK-10 renal; DU-145 prostate.
Holding throughout (experiment): NCI anticancer screen, dose series, 48 h

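Results reflect a 48-hour exposure of cells in 96-well plates to compound at five concentrations. GI50 marks 50% less growth. TGI marks complete inhibition of growth.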

Take `Brc1cccc(C2(CCCC3(c4cccc(Br)n4)OCCO3)OCCO2)n1`: the TGI in the experiment with CAKI-1 renal was > 100 µM; in the experiment with HCT-116 colon, > 100 µM; in the experiment with HCT-15 colon, > 100 µM; in the experiment with NCI-H23 lung, > 100 µM; in the experiment with SK-MEL-2 melanoma it was > 100 µM; with SNB-75 CNS, 84 µM. In addition, the TGI in the experiment with SW-620 colon, in the experiment on T-47D breast and in the experiment on TK-10 renal was > 100 µM in each case.

As to `NCCCCNCCCN`, the TGI in the experiment with CAKI-1 renal is 3.1 µM; in the experiment on DU-145 prostate, > 100 µM; in the experiment with HCT-116 colon, > 100 µM; in the experiment with HCT-15 colon, > 100 µM; with NCI-H23 lung, > 100 µM; in the experiment on SK-MEL-2 melanoma it was > 100 µM. Further, the TGI in the experiment with SNB-75 CNS, in the experiment with SW-620 colon, in the experiment on T-47D breast and in the experiment with TK-10 renal was > 100 µM in each case.

Regarding `O=C(Nc1ccc2ccccc2c1)Nn1cnnc1`, the TGI in the experiment on CAKI-1 renal, in the experiment with DU-145 prostate, in the experiment on HCT-116 colon, with HCT-15 colon, in the experiment with NCI-H23 lung and in the experiment with SK-MEL-2 melanoma was > 100 µM each time. Besides, the TGI with SNB-75 CNS, in the experiment with SW-620 colon, with T-47D breast and in the experiment with TK-10 renal was > 100 µM in each case.

Take `Cc1nc2ccccc2c(=O)n1NC(=O)Cc1ccccc1`: the TGI in the experiment with DU-145 prostate, in the experiment on HCT-116 colon, with NCI-H23 lung, in the experiment with SNB-75 CNS, in the experiment with SW-620 colon and in the experiment with T-47D breast was > 100 µM throughout. For the same compound, in the experiment on TK-10 renal, the TGI is > 100 µM.

Regarding `Oc1c(I)cc(I)cc1CNCCCN(Cc1ccccn1)Cc1ccccn1`, the GI50 with CAKI-1 renal is 0.896 µM; in the experiment with DU-145 prostate it was 1.51 µM; in the experiment on HCT-15 colon it was 1.13 µM; in the experiment with NCI-H23 lung it was 1.16 µM; in the experiment with SK-MEL-2 melanoma, 1.18 µM; in the experiment with SNB-75 CNS, 0.836 µM. For the same compound, the values for the GI50 in the experiment with SW-620 colon, in the experiment with T-47D breast and in the experiment on TK-10 renal were 1.04 µM, 1.49 µM and 0.922 µM, respectively. For the same compound, the TGI was found to be 1.74 µM in the experiment on CAKI-1 renal; 4.63 µM with DU-145 prostate; 2.79 µM in the experiment on HCT-15 colon; 3.22 µM in the experiment on NCI-H23 lung; 2.91 µM in the experiment with SK-MEL-2 melanoma; 4.32 µM in the experiment with SNB-75 CNS. For the same compound, the TGI stood at 2.41 µM in the experiment on SW-620 colon, 5.83 µM in the experiment with T-47D breast and 1.8 µM in the experiment on TK-10 renal.

With `Cc1cc2nc3n(c2cc1C)C(c1c(F)cccc1F)SC3` (stereo not given), the TGI with CAKI-1 renal was 60.3 µM; with HCT-116 colon it was 28.1 µM; in the experiment with HCT-15 colon, > 10 µM; in the experiment with NCI-H23 lung, 38.2 µM; in the experiment on SK-MEL-2 melanoma, 39.7 µM; with SNB-75 CNS it was > 100 µM. For the same compound, the results for the TGI with SW-620 colon, in the experiment with T-47D breast and with TK-10 renal were 50.9 µM, > 100 µM and > 100 µM, respectively.

With `COC(=O)C[C@H](COCc1ccccc1)NC(=O)C[C@H](COCc1ccccc1)NC(=O)C[C@H](COCc1ccccc1)NC(=O)OC(C)(C)C`, the TGI in the experiment with CAKI-1 renal is > 100 µM; in the experiment with DU-145 prostate it was > 100 µM; in the experiment on HCT-116 colon, 67 µM; in the experiment on HCT-15 colon, > 100 µM; in the experiment with NCI-H23 lung, > 100 µM; with SK-MEL-2 melanoma it was > 100 µM. The TGI in the experiment on SNB-75 CNS is 38 µM; with SW-620 colon, > 100 µM; with T-47D breast it was > 100 µM.

In the case of `CCC(=N\NC(N)=S)/C(C)=N/O`, the TGI in the experiment with CAKI-1 renal, with DU-145 prostate, in the experiment on HCT-116 colon, in the experiment with HCT-15 colon, with NCI-H23 lung and in the experiment on SK-MEL-2 melanoma was > 100 µM in each case. Further, the TGI with SW-620 colon, in the experiment with T-47D breast and in the experiment with TK-10 renal was > 100 µM throughout.

With `Cc1ccnc(NC(=S)Nc2ccccc2Cl)c1`, the TGI is > 100 µM with CAKI-1 renal; > 100 µM in the experiment on DU-145 prostate; > 100 µM with HCT-116 colon; > 100 µM with HCT-15 colon; > 100 µM in the experiment on SK-MEL-2 melanoma; 71.7 µM with SNB-75 CNS. In addition, the TGI in the experiment with SW-620 colon, in the experiment with T-47D breast and in the experiment on TK-10 renal was > 100 µM each time.

With `c1ccc([C@H]2CN3CCSC3=N2)cc1`, the TGI with CAKI-1 renal, with DU-145 prostate, with HCT-116 colon, in the experiment with HCT-15 colon, with NCI-H23 lung and with SK-MEL-2 melanoma was > 100 µM each time. The TGI with SNB-75 CNS, in the experiment on SW-620 colon and in the experiment on T-47D breast was > 100 µM in each case.

`CC(=O)Oc1ccc(OC(Oc2ccccc2)c2ccccc2)cc1` (stereo not given): the TGI with CAKI-1 renal was 55.7 µM; with DU-145 prostate it was > 100 µM; in the experiment on HCT-116 colon, 59 µM; with HCT-15 colon, > 100 µM; in the experiment on NCI-H23 lung it was 47.6 µM; in the experiment with SNB-75 CNS, 64.4 µM. For the same compound, the TGI in the experiment on SW-620 colon, in the experiment on T-47D breast and with TK-10 renal was > 100 µM each time.

`CC(O)(c1ccccc1)c1nccc2ccccc12` (stereo not given): the TGI with CAKI-1 renal, with DU-145 prostate, with HCT-116 colon, with HCT-15 colon, with NCI-H23 lung and in the experiment with SNB-75 CNS was > 100 µM in each case. Moreover, the TGI in the experiment on SW-620 colon, with T-47D breast and in the experiment on TK-10 renal was > 100 µM in each case.

Regarding `CCCCCCC(CCl)c1sc(-c2csc(CCNC(=O)OC(C)(C)C)n2)nc1C(=O)OC` (stereo not given), the TGI was > 100 µM in the experiment with CAKI-1 renal; > 100 µM in the experiment with DU-145 prostate; 31.6 µM with HCT-116 colon; 73.5 µM in the experiment on HCT-15 colon; > 100 µM in the experiment with NCI-H23 lung; 29.6 µM in the experiment with SK-MEL-2 melanoma. Moreover, the TGI with SW-620 colon is > 100 µM; with T-47D breast, 13 µM; in the experiment on TK-10 renal, > 100 µM.

As for `CC(/C=N/NC1=NCCCCN1)=N\NC1=NCCCCN1`, the TGI in the experiment on CAKI-1 renal, in the experiment on HCT-116 colon, in the experiment with HCT-15 colon, in the experiment with NCI-H23 lung, in the experiment on SNB-75 CNS and in the experiment with SW-620 colon was > 100 µM each time. Also, the TGI in the experiment with T-47D breast and in the experiment with TK-10 renal was > 100 µM each time.

For `Cc1nnc(N)nc1/C=C\c1cccs1`, the TGI was > 100 µM with CAKI-1 renal; > 100 µM in the experiment with DU-145 prostate; 35.5 µM in the experiment with HCT-116 colon; 29.6 µM with HCT-15 colon; 55.1 µM in the experiment with NCI-H23 lung; 30.5 µM with SK-MEL-2 melanoma. The TGI in the experiment with SW-620 colon, in the experiment on T-47D breast and in the experiment with TK-10 renal was > 100 µM each time.

Regarding `Cc1ccc(S(=O)(=O)n2cc(-c3cnc(N)c(Br)n3)c3ccccc32)cc1`, the TGI in the experiment with CAKI-1 renal was > 100 µM; with DU-145 prostate, 6.68 µM; with HCT-15 colon, > 100 µM; in the experiment with NCI-H23 lung it was 5.94 µM; in the experiment on SK-MEL-2 melanoma, > 100 µM; in the experiment on SNB-75 CNS, > 22.5 µM. In addition, the TGI with SW-620 colon, in the experiment on T-47D breast and in the experiment with TK-10 renal was > 100 µM throughout.

As for `O=C(/C=C/c1cccs1)c1ccsc1`, the TGI in the experiment on CAKI-1 renal was > 100 µM; with DU-145 prostate, > 100 µM; with HCT-15 colon it was 40.5 µM; with NCI-H23 lung it was 57.6 µM; in the experiment on SK-MEL-2 melanoma, > 100 µM; in the experiment with SNB-75 CNS, 89 µM. For the same compound, the TGI in the experiment with SW-620 colon turned out to be 75.2 µM; in the experiment on T-47D breast, 72 µM; with TK-10 renal, 97.6 µM.

As to `Cc1cc(NC2=NCCO2)c2c(c1C)CCCC2`, the TGI is > 100 µM in the experiment with DU-145 prostate; > 100 µM with HCT-116 colon; 49.6 µM in the experiment with HCT-15 colon; > 100 µM in the experiment with NCI-H23 lung; 67.5 µM with SNB-75 CNS; > 100 µM with SW-620 colon. Moreover, the values for the TGI with T-47D breast and in the experiment with TK-10 renal were 76.5 µM and > 100 µM, respectively.

With `CC(NC(=O)C(C)C(=O)NCc1ccc(C(F)(F)F)cc1)C(N)=O` (stereo not given), the TGI in the experiment with CAKI-1 renal, in the experiment on DU-145 prostate, in the experiment on HCT-116 colon, with HCT-15 colon, in the experiment with NCI-H23 lung and with SK-MEL-2 melanoma was > 100 µM throughout. In addition, the TGI in the experiment with SNB-75 CNS, with SW-620 colon and in the experiment on T-47D breast was > 100 µM throughout.

For the compound `CC(C)(C)OC(=O)NC(CCCCNC(=O)OCc1ccccc1)C(=O)NC(CCCCNC(=O)OCc1ccccc1)C(=O)ON1C(=O)CCC1=O` (stereo not given), the TGI in the experiment on HCT-116 colon, with HCT-15 colon, in the experiment with NCI-H23 lung, with SK-MEL-2 melanoma, with SNB-75 CNS and with SW-620 colon was > 100 µM in each case. For the same compound, the TGI in the experiment with T-47D breast and in the experiment on TK-10 renal was > 100 µM throughout.

Consider `CC(=O)OCC1OC(OCC2OC(N3C(=S)N[C@H]([C@@H](O)[C@H](O)[C@H](O)CO)[C@H]3O)C(OC(C)=O)C(OC(C)=O)C2OC(C)=O)C(OC(C)=O)C(OC(C)=O)C1OC(C)=O` (stereo not given in full), for which the TGI in the experiment with CAKI-1 renal, in the experiment with DU-145 prostate, with HCT-116 colon, in the experiment with HCT-15 colon, in the experiment with NCI-H23 lung and in the experiment with SK-MEL-2 melanoma was > 100 µM throughout. Moreover, the TGI with SW-620 colon, in the experiment on T-47D breast and in the experiment on TK-10 renal was > 100 µM in each case.

The record behind these values is PubChem BioAssay (NCI).
